Here are results for 1 compound from patent publication US20100196907A1, “MARKERS TO PREDICT AND MONITOR RESPONSE TO AURORA KINASE B INHIBITOR THERAPY” (ABBOTT LABORATORIES, priority 2009, published 2010).

One series relates to SW620^ABCB1/3 cells. The series can be described thus: intracellular drug concentration by LC-MS. It counts as in vitro ADME, human. Particulars: 1 μM for 4 hours. Here is the method: SW620 and SW620^ABCB1/3 cells were washed and allowed to grow in drug-free medium overnight. […] Cytosolic drug accumulation was determined by LC-MS analysis. Briefly, cells were rinsed once with PBS and extracted in cell lysis buffer. The medium, PBS wash, and cell lysate were treated with 2 volumes of acidified MeOH. Crude whole-cell lysates were then clarified by centrifugation at 15000 g for 15 minutes at 4° C. yielding an insoluble cell pellet and cytosol. The insoluble cell pellet was diluted 1:10 with 50% acetonitrile and centrifuged at 11,000 g for 5 minutes.

Another series has as its system SW620^ABCB1/3. Put plainly: colony formation, SW620^ABCB1/3. In kind it is cell-based, human. Particulars: Homo sapiens. Here is the method:
SW620^ABCB1/3 and the respective parental cell lines were washed and 500 cells/well were seeded into six-well plates in drug-free medium. Then, 24 hours later, compounds were diluted in DMEM or RPMI, added to the cells, which were cultured at 37° C. for 7-10 days. Cells were then fixed and stained with 0.2% crystal violet to visualize and count colonies.

For series [1], the system named is SW620 colon carcinoma cells. Put plainly: selection of SW620 cells in 1 μM AZD1152 HQPA. Particulars: after 5 passages. In kind it is cell-based, human. Here is the method:
All cells were maintained at 37° C. in 5% CO2. […] Less than 0.01% of cells survived this treatment after 5 passages (data not shown). […] In the drug-resistant SW620 derivative (hereafter referred to as SW620^ABCB1/3), ABCB1, which encodes MDR1, was the most highly overexpressed gene on the array, and was identified by two distinct probe sets (FIG. 1A, inset). […] Among the gene set that encodes known small molecule transporters, ABCB1 and ABCB4 are the only two that show highly differential expression (FIG. 1A). The apparent co-upregulation of ABCB1 and ABCB4 was curious given that these genes lie juxtaposed within a common genomic locus on the long arm of chromosome 7 (7q21.1).

In a further series the test system is SW620^ABCB1/3 tumors. Put plainly: intratumor pharmacokinetics, SW620^ABCB1/3 xenografts. In kind it is in vivo, mice. Here is the method:
C.B.-17 scid-bg (scid-bg) or C.B.-17 scid (scid) mice were obtained from Charles River Laboratories (Wilmington, Mass., USA) at 5-6 weeks of age and used for studies when greater than 8 weeks of age and/or about 20 grams in size. All animal studies were conducted in a specific pathogen-free environment in accordance with the Internal Institutional Animal Care and Use Committee (IACUC), accredited by the American Association of Laboratory Animal Care under conditions that meet or exceed the standards set by the United States Department of Agriculture Animal Welfare Act, Public Health Service policy on humane care and use of animals and the NIH guide on laboratory animal welfare. Overt signs of dehydration, lack of grooming, lethargy, greater than 15% weight loss as well as tumor volume greater then 20% body weight were used to determine tumor end point. SW620 cell lines were obtained from the ATCC (Manassas, Va.) and cultured according to their recommendations without antibiotics and routinely tested for Mycoplasma and confirmed to be microbe-free by infectious microbe PCR amplification test (IMPACT; Missouri Research Animal Diagnostic Laboratory, Columbia, Mo.) prior to in vivo inoculation. […] Two bisecting diameters were measured with calipers and tumor volumes were estimated from the formula: (length×width^2)/2. […]

A further series deals with HCT-15. Put plainly: colony formation, HCT-15. It counts as cell-based, human. Particulars: Homo sapiens.
In series [2] the test system is panel of 50 other kinases. Particulars: cited from earlier work.
A further series concerns SW620 cells. The series can be described thus: histone H3 phosphorylation immunoblot, SW620. It counts as cell-based, human. Here is the method: SW620 and SW620^ABCB1/3 cells were washed and allowed to grow in drug-free medium overnight. […] The lysates were then probe-sonicated for 10 seconds then clarified by centrifugation at 15,000 g for 15 minutes at 4° C. After treatment with SDS-sample buffer, protein extracts were resolved on NuPAGE Bis-Tris 4-12% gels (Invitrogen (Carlsbad, Calif.)). Samples were electrotransferred to PVDF membranes (Invitrogen (Carlsbad, Calif.)), incubated with primary antibody overnight, and developed using Pierce Dura-Signal chemiluminescence reagents (Pierce, Rockford, Ill.), or Odyssey infrared imaging system from LI-COR Biosciences (Lincoln, Nebr.).

The term IC50 denotes the concentration that inhibits the measured activity by half. As to `CCN(CCO)CCCOc1ccc2c(Nc3cc(CC(=O)Nc4cccc(F)c4)[nH]n3)ncnc2c1` [AZD1152 HQPA], the “drug in the cytosol compared to parental SW620 cells” value in the series with SW620^ABCB1/3 cells is on record as “Significantly less drug”. Moreover, the figures for the IC50 with SW620^ABCB1/3 and in the series with HCT-15 were 2000 nM and 1400 nM, respectively. Also, the “cells that survived treatment” value in series [1] is “Less than 0.01%”. For the same compound, the “period of tumor concentration above threshold” value with SW620^ABCB1/3 tumors (SW620^ABCB1/3 tumors, single i.p. 100 mg kg^−1) is approximately 6 h. For the same compound, in the series on SW620^ABCB1/3 tumors (single IP administration, 24-hour period post-dose), the “overall tumor AUC compared to the parental cohort” value is recorded as “reduction in the overall tumor AUC”. Besides, the “activity against a panel of 50 other kinases” value in series [2] is “inactive”. The “intrinsic potency (histone H3 phosphorylation)” value in the series with SW620 cells came out at 20 nM.
